Data from patent US20060030730A1, “Purification and production methods of 1-aminocyclopropanecarboxylic acid” (Daicel Chemical Industries, Ltd., priority 2004, published 2006).

Assay: Solubility of 1-aminocyclopropanecarboxylic acid in solvents
Type: physicochemical

- solubility in methanol (solvent methanol): about 1.0 % (wt/wt)
- solubility in organic acid having one to five carbon atoms (solvent: organic acid having one to five carbon atoms (e.g. acetic acid)): highly soluble
Compound: NC1(C(=O)O)CC1 [1-aminocyclopropanecarboxylic acid]
